Data taken from patent US7662767B2, “Polynucleotide intercalator interceptors and inhibitors” (Materials Evolution and Development USA, Inc., priority 2000, dated 2010).
Several values for one entry are separate records, joined by “and”; a condition that tells them apart may be missing. Identical values can stand only once. Entries after “also recorded” stand apart in the source; their conditions may differ.

Assays:
[1] = Optical titration (absorbance) of acridine orange with xanthines/purines, Kassoc from delta absorbance; type: binding; settings: for enhancement of the ability of theophylline to complex AO: Kassoc relative to theophylline; for Kassoc ± S.E.: binding affinity between acridine orange (10 μM) and compound, 5 mM HEPES pH 7.0, 25±1° C., 0 = no measurable association detected; for K ± S.D.: AO-CAF, Absorbance, AO [10 μM], CAF [1-5000 μM], this study
Experimental: A red spectral shift in the optical adsorption maximum of AO upon the addition of a particular xanthine, indicates the possibility of a complex being formed between the two compounds. Spectral shifts can be measured by optical titrations.
Optical titrations (serial additions of various xanthines to a solution of AO) were performed on a Beckman DU-600 Scanning Spectrophotometer (Beckman Instrument Co., New York, N.Y.) using a 3 mL (1-cm light path) quartz cuvette containing 2.0 mL of a […]. The DU600 Spectrophotometer was blanked with 2 mL of a pH 7.0 buffered 5 mM HEPES solution over the full range of wavelengths to be scanned prior to sample analysis. This reduced the need to subtract the background absorbance from the HEPES buffer. Optical absorbance scans were performed over a wavelength range preferably from 400 nm to 550 nm. […] The 10 μM AO solution was scanned before the start of each titration series to quantitatively monitor any changes in the absorbance spectrum. Optical absorbance experiments were performed using aliquots varying in volume from 1:L to 20:L taken from prepared xanthine stock solutions (5 mM to 50 mM) and titrated into the cuvette containing 2.0 mL of the 10 μM AO solution. The solution in the cuvette was then thoroughly mixed by 10 seconds of shaking before scanning. All titrations were performed at room temperature (25±1° C.). The absorbance spectra were measured in 1 nm intervals and stored in digital form. Digitized scan data was converted to a Lotus Spreadsheet file (*.wk1) using a conversion program supplied by the manufacturer (Beckman Instruments Inc.) then imported into a Microsoft Excel 97™ Workbook file (*.xls) and saved in this format for further analysis. Spectral data for each titration was combined and expressed in graphic form (Excel™) (X-axis=wavelength in nm; Y-axis=optical absorbance) for each xanthine titrated with AO. […] Adjusted absorption values were plotted and compared to spectra from non-complexed AO. This allowed for the visualization of an expected spectral shift that occurs when AO forms a complex with a xanthine.
The association constant, Kassoc, may be used to analyze the binding ability of modified xanthines to DNA intercalators. The association constant may be calculated based upon a differential shift in the absorbance spectrum. When the presence of the xanthine caused a spectral shift, a difference absorbance plot or delta plot was obtained. Delta plots were constructed by subtracting the adjusted absorption spectrum of AO in the presence of the xanthine from the initial spectrum of AO alone at each wavelength and for each aliquot of the titration. This procedure allowed for the creation of difference absorption values or delta absorption values. Delta absorption values obtained in this manner (Y-axis=delta absorption) were plotted against wavelength in nm (X-axis). The appearance of a single isobestic point was indicative of only two species present in solution, AO, and an AO complex. Graphic representation allowed for the selection of a wavelength with the maximum sensitivity for determining the association constant. This wavelength was characterized by the greatest positive response in delta absorbance values observed upon addition of each aliquot of xanthine to the AO solution. The AO-xanthine association or binding constant was determined by the following equilibrium expression: I+X≡IX EQUATION 1: […]
Where I represents the intercalator (AO), X represents the interceptor molecule (xanthine), and IX represents the AO-xanthine complex, respectively.

[2] = tested on: chicken erythrocyte nuclear chromatin; test: Blocking of acridine orange intercalation into chicken erythrocyte nuclear chromatin, fluorescence microscopy; design: key: 0: no blocking effect; 1: slight blocking; 2: moderate blocking; 3: almost total blocking (very slight green fluorescence detectable); 4: complete blockage (no green fluorescence detectable); settings: 10 μM AO
Experimental: Microscope slides coated with chicken erythrocyte were stained with 10 μM AO at three separate areas on the microscope slide as described above. Slides were exposed to […] different xanthies at four different molar ratios for three different periods of time. The xanthines, theophylline, caffeine, 1,3,7,9-tetramethyl uric acid, and aminophylline, were prepared with 10 μM AO at molar ratios of 50:1, 500:1, 2500:1, 5000:1 xanthine to AO in distilled water. Microscope slides coated with chicken erythrocytes were exposed to a mixture of xanthine/AO at each molar ratio for periods of 10 min, 1 min, and 10 seconds under static (non-agitated) conditions. […] Following exposure to the xanthine/AO or to the DNA/AO solutions, the slides were rinsed in distilled water, allowed to dry at room temperature, examined by fluorescence microscopy, and the color of the nuclei recorded. Results were recorded as follows: 0=no blocking effect; 1=slight blocking; 2=moderate blocking; 3=almost total blocking (very slight green fluorescence detectable); 4=complete blockage (no green fluorescence detectable).
In the implementation shown in Table 4-2, the relative intensity of the green fluorescent color ([…]) utilizing a red blocking filter (≧600 nm) was used as the indicator of the intensity of staining. The molar ratio is expressed as the ratio of xanthine concentration to 10 μM AO. Results were recorded as follows: 0=no blocking effect; 1=slight blocking; 2=moderate blocking; 3=almost total blocking (very slight green fluorescence detectable); 4=complete blockage (no green fluorescence detectable). *Kassoc values for the xanthines are taken from Table 2-1 and the Kassoc values for DNA were taken from Table 3-2.

[3] = tested on: chicken erythrocyte nuclear chromatin; test: Quantified removal of intercalated AO from chicken erythrocyte smears, fluorescence plate reader; settings: 100 mM xanthine, static, 10 seconds to two hours, AO 1 mM 10 sec stain, λex 485 nm, λem 530 nm
Experimental: Microscope slides (slides) coated with chicken erythrocytes were stained by placing the slide into a 50 ml beaker filled with a 1 mM solution of AO prepared in distilled water for approximately 10 seconds (static) followed by three successive 10 second rinses in distilled water before drying at room temperature. Care was taken to store all slides in the dark when not in use to avoid photobleaching. Stained slides were dried prior to being exposed to 50 ml of a 100 mM solution of either CAF or aminophylline (AM) for set time periods under static conditions. Exposure to the xanthine solution was followed by three 10-second rinses with distilled water and drying of the slides in the dark prior to fluorescence analysis. Control slides consisted of erythrocyte coated slides that were subsequently placed in only distilled water (no stain) prior to drying, blank slides (no erythrocytes) placed in AO staining solutions then dried served as negative controls, and erythrocyte coated cells stained with AO but exposed to only distilled water and not a xanthine solution served as positive control. The stained microscope slides were then attached by tape to a plastic frame (upside down 96-well plate cover) and fluorescence determined using a Perkin-Elmer Model HTS 7000 Bio Assay Reader with λex 485nm and λem 530 with the gain set at 40.
Distilled water served as solvent control (n=8).

[4] = Table 4-2, in parentheses under compound, taken from Table 2-1
[5] = Table 4-3, taken from Table 2-1
[6] = Xanthine/AO molar ratio 5000:1, exposure 10 min
[7] = molar ratio 50:1, exposure 10 sec
[8] = molar ratio 50:1, exposure 1 min
[9] = molar ratio 50:1, exposure 10 min
[10] = molar ratio 500:1, exposure 10 sec
[11] = molar ratio 500:1, exposure 1 min
[12] = molar ratio 500:1, exposure 10 min
[13] = molar ratio 2500:1, exposure 10 sec
[14] = molar ratio 2500:1, exposure 1 min
[15] = molar ratio 2500:1, exposure 10 min
[16] = molar ratio 5000:1, exposure 10 sec
[17] = molar ratio 5000:1, exposure 1 min

Structure (SMILES)	enhancement of the ability of theophylline to complex AO [1]	Kassoc [1, 4]	Kassoc [1, 5]	Kassoc ± S.E. [1]	blocking of AO intercalation [2, 6]	blocking of AO intercalation [2, 7]	blocking of AO intercalation [2, 8]	blocking of AO intercalation [2, 9]	blocking of AO intercalation [2, 10]	blocking of AO intercalation [2, 11]	blocking of AO intercalation [2, 12]	blocking of AO intercalation [2, 13]	blocking of AO intercalation [2, 14]	blocking of AO intercalation [2, 15]	blocking of AO intercalation [2, 16]	blocking of AO intercalation [2, 17]	further results
Cn1c(=O)c2[nH]cnc2n(C)c1=O.NCCN [1,3-dimethyl xanthine ethylenediamine]	280%	(596) M^−1	596 M⁻¹	596.2 ± 6.5 M⁻¹	3	0	0	0	2	2	0	3	2	1	3	3	Kassoc ± S.E. ([1]; listed as AM): 596 M⁻¹; Kassoc ± S.E. ([1]; listed as aminophylline): 596.2 M⁻¹ and 596 M⁻¹; reduction of fluorescence (removal of AO) versus time of exposure ([3]; listed as AM): followed first order decay kinetics; also recorded: more rapid removal of AO from the nuclear chromatin
Cn1c(=O)c2c(ncn2C)n(C)c1=O [1,3,7-trimethyl xanthine (caffeine), 1,3,7-trimethyl xanthine]	63%	(256) M^−1	256 M⁻¹	255.7 ± 4.8^c M^−1	1	0	0	0	2	0	0	2	1	0	3	2	K ± S.D. [1]: 255 ± 5 M⁻¹ and 256 ± 5 M⁻¹; K ± S.D. ([1]; listed as CAF-AO): ~250 M⁻¹; Kassoc ([1]; Table 2-2, Kassoc value with acridine orange (this report)): 256 M⁻¹; Kassoc ± S.E. ([1]; listed as CAF): 256 M⁻¹; Kassoc ± S.E. ([1]; listed as CAF-AO): 256 M⁻¹; Kassoc ± S.E. ([1]; listed as CAP): ~256 M⁻¹; reduction of fluorescence (removal of AO) versus time of exposure [3]: followed first order decay kinetics
